Results: publication PMC10850190, “Bifidobacterial GH146 β-L-arabinofuranosidase for the removal of β1,3-L-arabinofuranosides on plant glycans” (Applied Microbiology and Biotechnology, 2024)

Molecular target: T1, Bll1HypBA1 (Bifidobacterium longum, UniProt E8MGH8)
T1 construct: gene hypBA1; GH127 enzyme prepared as in earlier reports; homodimer
T1 sequence (E8MGH8 1-658): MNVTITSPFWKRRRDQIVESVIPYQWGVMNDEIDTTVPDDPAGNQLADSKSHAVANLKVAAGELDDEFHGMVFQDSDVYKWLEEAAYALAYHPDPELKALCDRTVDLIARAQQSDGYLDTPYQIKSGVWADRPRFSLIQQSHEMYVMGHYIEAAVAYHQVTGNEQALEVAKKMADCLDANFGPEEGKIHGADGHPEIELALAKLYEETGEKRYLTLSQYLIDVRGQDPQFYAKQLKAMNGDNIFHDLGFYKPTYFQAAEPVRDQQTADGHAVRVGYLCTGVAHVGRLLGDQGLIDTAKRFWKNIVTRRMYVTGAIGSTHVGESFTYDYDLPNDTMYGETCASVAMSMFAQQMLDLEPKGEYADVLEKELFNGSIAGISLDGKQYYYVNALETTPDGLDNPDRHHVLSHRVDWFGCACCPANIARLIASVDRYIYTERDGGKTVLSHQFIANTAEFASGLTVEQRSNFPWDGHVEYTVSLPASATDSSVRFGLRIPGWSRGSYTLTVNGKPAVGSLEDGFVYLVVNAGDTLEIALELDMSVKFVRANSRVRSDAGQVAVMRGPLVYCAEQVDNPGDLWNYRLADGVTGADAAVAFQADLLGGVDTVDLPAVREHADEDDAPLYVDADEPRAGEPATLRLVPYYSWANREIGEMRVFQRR
Assay: TLC, released L-arabinose
Assay type: biochemical
Details: 50 mM sodium acetate pH 5.5; 37 °C; 16 h

| SMILES | TLC, released L-arabinose |
| --- | --- |
| CO[C@@H]1O[C@@H](CO)[C@H](O)[C@H]1O[C@H]1O[C@@H](CO)[C@H](O)[C@H]1O [β2, Araf-β1,2-Araf-α-OMe] | Conversely, Bll1HypBA1 completely hydrolyzed these substrates |
| CO[C@@H]1O[C@@H](CO[C@H]2O[C@@H](CO)[C@H](O)[C@H]2O)[C@H](O)[C@H]1O [β5, Araf-β1,5-Araf-α-OMe] | Conversely, Bll1HypBA1 completely hydrolyzed these substrates |
